From PubChem BioAssay AID743420 (The Scripps Research Institute Molecular Screening Center, 2014)
Calls of active or inactive are those of the source. How the calls were made is not given here.

Biological target: Sphingosine 1-phosphate receptor 5 (Homo sapiens) (UniProt Q9H228)
Assay: S1P5 receptor agonist activity, late-stage follow-up, counter-screen for S1PR3 antagonist project, cell-based, FRET, dose response (AID 743420)
Conditions: S1P5 cell-based FRET assay, agonist mode

Sequence of Sphingosine 1-phosphate receptor 5 (Homo sapiens) (Q9H228 whole entry, looked up): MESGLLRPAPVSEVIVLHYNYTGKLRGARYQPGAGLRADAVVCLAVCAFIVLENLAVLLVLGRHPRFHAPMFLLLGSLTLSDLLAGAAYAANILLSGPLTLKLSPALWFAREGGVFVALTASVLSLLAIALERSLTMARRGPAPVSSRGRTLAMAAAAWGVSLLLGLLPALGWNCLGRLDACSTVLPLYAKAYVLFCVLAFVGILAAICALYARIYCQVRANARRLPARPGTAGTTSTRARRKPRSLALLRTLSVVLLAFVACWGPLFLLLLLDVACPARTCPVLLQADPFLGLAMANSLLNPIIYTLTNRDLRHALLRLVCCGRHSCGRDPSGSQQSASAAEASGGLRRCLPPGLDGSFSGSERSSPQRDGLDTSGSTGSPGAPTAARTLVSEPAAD

SMILES	EC50
O=C(NC(c1nc(-c2ccccc2)no1)C1CCOCC1)c1ccc(Cl)c(Cl)c1 (configuration not stated)	> 28.2 µM (inactive)
O=C(NC(c1ccc(Cl)cc1)c1nc(-c2ccccn2)no1)c1cccc(Cl)c1 (configuration not stated)	> 28.2 µM (inactive)
O=C(NC(c1ccc(Br)cc1)c1nc(-c2ccccc2)no1)c1ccc(Cl)c(Cl)c1 (configuration not stated)	> 28.2 µM (inactive)
O=C(NC(c1ccc(Cl)cc1)c1nc(-c2ccccc2)no1)c1ccc(Cl)c(Br)c1 (configuration not stated)	> 28.2 µM (inactive)
O=C(NC(c1ccc(Cl)c(Cl)c1)c1nc(-c2ccccc2)no1)c1ccc(Cl)cc1 (configuration not stated)	> 28.2 µM (inactive)
Cc1ccc(C(=O)NC(c2ccccc2)c2nc(-c3ccccc3)no2)cc1 (configuration not stated)	> 28.2 µM (inactive)
COc1ccc(C(=O)NC(c2ccccc2)c2nc(-c3ccccc3)no2)cc1 (configuration not stated)	> 28.2 µM (inactive)
O=C(NC(c1nc(-c2ccccc2)no1)C1CCCCC1)c1ccc(Cl)c(Cl)c1 (configuration not stated)	> 28.2 µM (inactive)
O=C(NC(c1ccc(Cl)c(Cl)c1)c1nc(-c2ccccc2)no1)c1ccc(Cl)c(Cl)c1 (configuration not stated)	> 28.2 µM (inactive)
N#Cc1ccc(C(=O)NC(c2ccc(Cl)c(Cl)c2)c2nc(-c3ccccc3)no2)cc1 (configuration not stated)	> 28.2 µM (inactive)
O=C(c1cccc(Cl)c1)N(CCO)C(c1ccc(Cl)c(Cl)c1)c1nc(-c2ccccc2)no1 (configuration not stated)	> 28.2 µM (inactive)
O=C(NC(c1ccccc1)c1nc(-c2ccccc2)no1)c1cccc(Cl)n1 (configuration not stated)	> 28.2 µM (inactive)

Now from value to compound:

EC50	SMILES
> 28.2 µM (inactive)	O=C(NC(c1ccccc1)c1nc(-c2ccccc2)no1)c1ccc(Cl)cc1 (configuration not stated)
> 28.2 µM (inactive)	O=C(NC(c1cccc(Cl)c1)c1nc(-c2ccccc2)no1)c1cccc(Cl)c1 (configuration not stated)
> 28.2 µM (inactive)	O=C(NC(c1cccc(Cl)c1)c1nc(-c2ccccc2)no1)c1cc(Cl)cc(Cl)c1 (configuration not stated)
> 28.2 µM (inactive)	O=C(NC(c1ccc(Cl)c(Cl)c1)c1nc(-c2ccccc2)no1)c1ccccc1 (configuration not stated)
> 28.2 µM (inactive)	O=C(NC(c1ccc(Cl)cc1)c1nc(-c2ccccc2)no1)c1cccc(Br)c1 (configuration not stated)
> 28.2 µM (inactive)	O=C(NC(c1ccc(Cl)cc1)c1nc(-c2ccccc2)no1)c1cccc(Cl)c1 (configuration not stated)
> 28.2 µM (inactive)	O=C(NC(c1ccccc1)c1nc(-c2ccccc2)no1)c1cccc(Cl)c1 (configuration not stated)
> 28.2 µM (inactive)	O=C(NC(c1cccc(Cl)c1)c1nc(-c2ccccc2)no1)c1ccc(Cl)c(Cl)c1 (configuration not stated)
> 28.2 µM (inactive)	O=C(NC(c1ccc(Cl)cc1)c1nc(-c2ccccc2)no1)c1ccc(Cl)c(Cl)c1 (configuration not stated)
> 28.2 µM (inactive)	O=C(NC(c1ccc(Cl)c(Cl)c1)c1nc(-c2ccccc2)no1)c1cccc(Cl)c1 (configuration not stated)
> 28.2 µM (inactive)	O=C(NC(c1ccccc1)c1nc(-c2ccccc2)no1)c1cccc(Br)c1 (configuration not stated)
> 28.2 µM (inactive)	Cc1ccc(C(NC(=O)c2cccc(Cl)c2)c2nc(-c3ccccc3)no2)cc1 (configuration not stated)
> 28.2 µM (inactive)	O=C(NC(Cc1ccccc1)c1nc(-c2ccccc2)no1)c1cccc(Cl)c1 (configuration not stated)
> 28.2 µM (inactive)	O=C(NC(c1ccc(Cl)cc1)c1nc(-c2cccc(Cl)c2)no1)c1cccc(Cl)c1 (configuration not stated)
> 28.2 µM (inactive)	CCc1ccc(C(NC(=O)c2cccc(Cl)c2)c2nc(-c3ccccc3)no2)cc1 (configuration not stated)
